Measured values from patent publication US6313173A, “Glyoxylic acid amides” (Bayer Aktiengesellschaft, priority 1996, dated 2001).

Columns and labels:
physchem = conditions: hplc
Phytophthora infestans = type: in vivo; conditions: tomato, protective; application rate of 50 g/ha; 3 days after the inoculation
Plasmopara viticola = assay: Plasmopara Test (Grapevine)/protective; type: in vivo; conditions: protective, application rate of 50 g/ha, 6 days after the inoculation
[1] = hplc
[2] = E/Z mixture, second of two values (Z position)

Row | SMILES | chromatographic logP (physchem) | chromatographic logP (logP determined by HPLC; single value (single isomer)) | efficacy (Phytophthora infestans) [%] | chromatographic logP (logP determined by HPLC; E/Z mixture, (E position)) | chromatographic logP (logP determined by HPLC; [2]) | further results
1 | CCOc1ccc(CC(C)NC(=O)/C(=N\OC)c2ccc(Br)cc2)cc1OC (stereo not shown) [Example 5] | 3.64 | – | – | – | – | –
2 | CCO/N=C(/C(=O)NC(C)Cc1ccc(OCC)c(OC)c1)c1ccc2c(c1)CCCC2 (stereo not shown) [Example 13] | – | 4.07 | ≥ 86 | – | – | –
3 | CCON=C(C(=O)NC(C)Cc1ccc(OCC)c(OC)c1)c1ccc(C)cc1 (stereo not shown) [Example 14] | – | – | ≥ 86 | 3.38 | 3.71 | efficacy (Plasmopara viticola): ≥ 96%
4 | CCOc1ccc(CC(C)NC(=O)C(=NOC)c2ccc3c(c2)CCC3)cc1OC (stereo not shown) [Example 3] | – | – | – | 3.13 | 3.44 | –
5 | CCO/N=C(\C(=O)NC(C)Cc1ccc(OCC)c(OC)c1)c1ccc2c(c1)CCC2 (stereo not shown) [Example 17] | – | 4.1 | – | – | – | –
6 | CCOc1ccc(CC(C)NC(=O)C(=NOC)c2ccc(Cl)cc2)cc1OC (stereo not shown) [Example 4] | 3.26 | – | – | – | – | logP [1]: 3.56
7 | CCON=C(C(=O)NC(C)Cc1ccc(OCC)c(OC)c1)c1ccc2c(c1)CCC2 (stereo not shown) [Example 16] | – | – | – | 3.79 | 4.1 | –
8 | CCOc1ccc(CC(C)NC(=O)C(=NOC)c2ccc3c(c2)CCCC3)cc1OC (stereo not shown) [Example 1, N-[2-(4-ethoxy-3-methoxyphenyl)-1-methylethyl]-2-methoxyimino-2-(5,6,7,8-tetrahydronaphthalin-2-yl)-acetic acid amide] | – | – | ≥ 86 | 3.72 | 4.04 | –
9 | CCO/N=C(/C(=O)NC(C)Cc1ccc(OCC)c(OC)c1)c1ccc(Br)cc1 (stereo not shown) [Example 20] | – | 3.69 | – | – | – | –
10 | CCON=C(C(=O)NC(C)Cc1ccc(OCC)c(OC)c1)c1ccc(Br)cc1 (stereo not shown) [Example 9] | – | – | – | 3.69 | 4.01 | –
11 | CCOc1ccc(CC(C)NC(=O)C(=NOC)c2ccc(C)cc2)cc1OC (stereo not shown) [Example 10] | 3.04 | – | – | – | – | logP [1]: 3.34
12 | CCOc1ccc(CC(C)NC(=O)/C(=N/OC)c2ccc(Cl)cc2)cc1OC (stereo not shown) [Example 7] | 3.26 | – | ≥ 86 | – | – | efficacy (Plasmopara viticola): ≥ 96%
13 | CCON=C(C(=O)NC(C)Cc1ccc(OCC)c(OC)c1)c1ccc(CC)cc1 (stereo not shown) [Example 15] | – | – | – | 3.73 | 4.05 | –
14 | CCO/N=C(\C(=O)NC(C)Cc1ccc(OCC)c(OC)c1)c1ccc(CC)cc1 (stereo not shown) [Example 19] | – | 4.05 | – | – | – | –
15 | CCOc1ccc(CC(C)NC(=O)/C(=N/OC)c2ccc(Br)cc2)cc1OC (stereo not shown) [Example 6] | 3.34 | – | ≥ 86 | – | – | efficacy (Plasmopara viticola): ≥ 96%
16 | CCON=C(C(=O)NC(C)Cc1ccc(OCC)c(OC)c1)c1ccc2c(c1)CCCC2 (stereo not shown) [Example 12] | – | 4.41 | – | – | – | –
17 | CCOc1ccc(CC(C)NC(=O)C(=NOC)c2ccc(Br)cc2)cc1OC (stereo not shown) [Example 2] | 3.34 | – | – | – | – | logP [1]: 3.64
18 | CCO/N=C(/C(=O)NC(C)Cc1ccc(OCC)c(OC)c1)c1ccc2c(c1)CCC2 (stereo not shown) [Example 18] | – | 3.79 | – | – | – | –
19 | CCON=C(C(=O)NC(C)Cc1ccc(OCC)c(OC)c1)c1ccc2c(c1)CCCC2 (stereo not shown) [Example 8] | – | – | – | 4.07 | 4.41 | –
20 | CCON=C(C(=O)NC(C)Cc1ccc(OCC)c(OC)c1)c1ccc(Cl)cc1 (stereo not shown) [Example 11] | – | – | ≥ 86 | 3.59 | 3.91 | –
